We go through five molecules from patent publication US20240009174A1, “METHODS FOR DISRUPTING MITOCHONDRIAL UNFOLDED PROTEIN RESPONSE” (Health Research, Inc., priority 2020, published 2024).

Molecules are shown by their SMILES.

Type in all cases: cell-based
The target in test [1] is T1, c-Myc (Homo sapiens, UniProt P01106).
T1 construct: endogenous in cells; host or cells: LNCaP and PC-3 cells
Kind of test: HSP60 and ClpP expression after c-Myc inhibitor. The conditions noted are these: LNCaP and PC-3 cells, 50 μM, 24 hrs. An excerpt: FIG. 4. HSP60 regulate ClpP expression but not vice versa. (A) HSP60 and ClpP stable knockdown LNCaP and PC-3 cells were generated using shRNA and analyzed for HSP60 and ClpP expression levels. Actin serves as loading control. (B-C) HSP60 and ClpP knockdown LNCaP and PC-3 cells were crosslinked with EGS, lysed and protein samples run on an SDS-PAGE gel as described in material and methods. Membranes were probed with either ClpP or HSP60 antibody to analyze the oligomerization status of these proteins. (D) Enzymatic activity of ClpP was assayed from mitochondrial pellets isolated from HSP60 knockdown PC-3 cells and DU145 Hsp60^+/− cells. (E) HSP60 was overexpressed in PC-3 cells and analyzed for ClpP expression. Actin serves as loading control. (F) ClpP was overexpressed in LNCaP, DU145 and PC-3 cells and analyzed for HSP60 expression. Actin serves as loading control. […] Whole cell lysates were prepared and analyzed for HSP60 and ClpP expression. […] (H) c-Myc binding efficiency with ClpP promoter in HSP60 knockdown LNCaP and PC-3 cells was determined using chromatin immunoprecipitation (ChIP) assay using specific primers. […]
HSP60 regulates expression of ClpP via c-Myc but not vice versa. […] To confirm that c-Myc is a regulator for ClpP expression, PCa cells were treated with c-Myc pharmacological inhibitor 10058-F4 and analyzed ClpP expression levels. […]

Test [2] deals with LNCaP and PC-3 cells. Description: Rescue of DCEM1-induced cell death by ROS quenchers (MTT cell viability). As for the experimental part:
FIG. 6. Pharmacological inhibition of HSP60-ClpP interaction induces UPR^mt and PCa cell death. (A) Docking of DCEM1 into apical domain of HSP60. (B) LNCaP and PC-3 cells were treated with DCEM1 for 24 hours and HSP60-ClpP interaction was analyzed by co-immunoprecipitation assay. (C) LNCaP and PC-3 cells were treated with DCEM1 for 24 hours and mitoROS levels were analyzed by flow cytometry using mitoSOX dye. (D) LNCaP and PC-3 cells were treated with DCEM1 for 24 hours and poly-Ub protein levels were analyzed by western blotting. (E) LNCaP and PC-3 cells were treated with DCEM1 for 24 and 48 hours and apoptotic cell populations were analyzed by flow cytometry using Annexin V FITC/PI method as explained in materials and methods. In (E) top panel, the bars in each series from left to right are control, 5, 10, and 20, and in (E) bottom panel, the bars in each series from left to right are DMSO, 5, 10, and 20. (F) LNCaP and PC-3 cells were treated with DCEM1 for 24 and 48 hours and lysates were prepared and analyzed for DEVDase activity using specific peptide substrate. […] (G) LNCaP and PC-3 cells were pre-treated with SKQ1 followed by DCEM1 treatment and analyzed for cell viability by MTT assay. (H) LNCaP and PC-3 cells were treated with either DCEM1 or H2O2 (200 μM) for 24 hours and total DNA were isolated and analyzed for mtDNA damage as described in materials and methods. […]

Test [3] has as its system mitochondrial chaperonin activity in PCa cells. Kind of test: Mitochondrial Chaperonin Activity Assay (MiCAA). Particulars: 24 h. The procedure: FIG. 10. Mitochondrial Chaperonin Activity Assay (MiCAA). PCa cells were treated with either DCEM1 (A) or ETB or Mizoribine (B) for 24 h and mitochondrial (Mito) chaperonin activity was analyzed as described in material and methods. In another experiment, PCa cells were transfected with siRNA to target HSP60 mRNA and mitochondrial chaperonin activity was analyzed (C). In (A), the bars in each series from left to right are DMSO and DCEM1. In (B), the bars in each series from left to right are DMSO, ETB, and MZR. In (C), the bars in each series from left to right are siMock, siHSP60-1, and siHSP60-2.
Since HSP60 chaperonin system is crucial for maintaining mitochondrial homeostasis in normal cells, a novel method, Mitochondrial Chaperonin Activity Assay (MiCAA), was developed to analyze chaperonin activity in live cells using flow cytometry to evaluate whether DCEM1 modulates mitochondrial chaperonin activity.

The subject of test [4] is HSP60-silenced cells. Description: Cell death in HSP60-silenced cells versus mock cells. The source says: Although cancer cells prefer aerobic glycolysis for energy, continual production of ATP via OXPHOS system is still required for rapid cancer cell survival and growth. ClpP along with LonP1 degrades Complex I during stress to alleviate mtROS, thus promoting cell survival. HSP60-silencing or inhibition of HSP60-ClpP interaction by DCEM1 contribute to mtROS buildup and mitotoxicity due to inhibition of ClpP function or ClpP-deficiency because ClpP is no longer available/functional in alleviating mtROS production and degrading unfolded protein in mitochondria leading to collapse of mitochondrial function and homeostasis. […] Mitochondrial proteases such as ClpP trigger mitochondria-to-nuclear signaling pathway and UPR^mt activation. Inhibition of ClpP expression and function by HSP60-silencing or HSP60 inhibitor such as DCEM1 may abolish mito-nuclear crosstalk leading to inhibition of retrograde signaling. Inhibition of HSP60 renders mitochondria in a fragile and dysfunctional state leading to enhanced apoptosis and blockage of cellular proliferation. Therefore, chemotherapeutic agents along with HSP60 inhibition may provide a novel combination for therapeutic benefits in PCa.

T1 sequence (P01106 whole entry): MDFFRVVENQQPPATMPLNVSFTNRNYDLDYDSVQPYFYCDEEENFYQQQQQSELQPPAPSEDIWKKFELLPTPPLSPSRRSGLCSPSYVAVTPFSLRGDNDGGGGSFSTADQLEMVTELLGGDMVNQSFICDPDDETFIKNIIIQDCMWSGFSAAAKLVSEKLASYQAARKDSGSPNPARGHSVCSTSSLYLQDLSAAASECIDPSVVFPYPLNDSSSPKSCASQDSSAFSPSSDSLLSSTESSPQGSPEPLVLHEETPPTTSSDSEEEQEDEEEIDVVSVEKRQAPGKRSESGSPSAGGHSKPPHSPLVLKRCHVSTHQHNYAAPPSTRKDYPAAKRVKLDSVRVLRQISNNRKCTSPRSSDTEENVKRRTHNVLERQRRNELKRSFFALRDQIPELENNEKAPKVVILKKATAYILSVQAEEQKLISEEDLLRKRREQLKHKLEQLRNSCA

`CCc1ccc(/C=C2/SC(=S)NC2=O)cc1` [10058-F4]: in test [1], the ClpP expression result was “downregulate ClpP expression” and the HSP60 expression entry is listed as “without affecting HSP60 expression”.

Turning to `CC1=C(C)C(=O)C(CCCCCCCCCC[P+](c2ccccc2)(c2ccccc2)c2ccccc2)=CC1=O` [SKQ1], in test [2] (LNCaP and PC-3 cells pre-treated with SKQ1 followed by DCEM1, MTT assay), the “effect of mitoROS quencher pre-treatment on DCEM1-induced cell death” value is given as “inhibited DCEM1—induced cell death”.

For `NC(=O)c1ncn([C@@H]2O[C@H](CO)[C@@H](O)[C@H]2O)c1O` [mizoribine, reference compound], in test [3], the mitochondrial chaperonin activity entry is recorded as “significantly inhibited”.

Regarding `CC(=O)O[C@@]12CO[C@@H]1C[C@H](O)[C@@]1(C)C(=O)[C@H](O)C3=C(C)[C@@H](OC(=O)[C@H](O)[C@@H](NC(=O)OC(C)(C)C)c4ccccc4)C[C@@](O)([C@@H](OC(=O)c4ccccc4)[C@H]21)C3(C)C` [docetaxel], in test [4], the “cell death induction in HSP60-silenced cells compared to mock cells” value is reported as “more efficacious”.

`CC(=O)N[C@@H](CS)C(=O)O` [NAC]: the “effect of NAC pre-treatment on DCEM1-induced cell death” value in test [2] (PCa cells, data not shown) is on record as “antagonizes DCEM1-induced cell death”.
